In one data set the test system is GBM0308 non-CSCs. As to the kind of experiment: Dose-response killing of GBM non-CSCs (PI/Hoechst, Celigo cytometer). The data set is classed as cell-based. Particulars: GBM0308 non-CSCs; for Non-CSCs Max. observed efficacy (% dead cells): Table 1, up to 10 μM. From the text: (§1) The inventors first evaluated a cohort of seven rocaglate translation inhibitors (1, 3-7, and 9, FIG. 1A and Table 1, compounds 2 and 8 were not tested due to unavailability). To assay for compounds that selectively affect GBM CSCs, the inventors employed the patient-derived tumor-initiating cell (TIC) cell line […] that forms neurospheres (consisting exclusively of tumor-initiating cells or CSCs) when cultured in neurobasal (NBE) medium. Upon exposure to serum and growth factor withdrawal, however, the cell line differentiates, acquires a flattened morphology, and forms a non-CSC population.^20 Thus, compounds can be tested in parallel to assess their effect on GBM CSCs vs. GBM non-CSCs as separate populations with a clean and robust response. This approach has been previously used to perform RNAi-based genetic screens to identify modulators of CSCs.^20 In this study, GBM0308 cells, cultured in stem cell conditions to form CSCs or in medium containing serum to induce differentiation into a non-CSC population, were treated in parallel with compounds at varying doses. Three days post-treatment, propidium iodide (PI) and Hoechst staining were performed and quantified using a Celigo image cytometer. Hoechst dye stained all […] nucleated cells, while PI exclusively stained dead cells. Cell viability and the percentage of cell death were then determined.
(§2) Cell Culture: Glioblastoma stem cell lines GBM0308, BT145, and BT112 were cultured in neurobasal (NBE medium) containing N-2 and B-27 supplements, EGF, bFGF, L-glutamine, and Penicillin-Streptomycin), as described previously.^19 Adherent GBM cells were cultured in serum-containing DMEM media (Invitrogen) supplemented with 10% fetal bovine serum (Corning Cellgro™). Cells were incubated at 37° C. and 5% CO2 to allow neurosphere formation. For seeding and subculturing, the neurospheres were gently trypsinized with 0.025% trypsin to form a single-cell suspension.
(§3) Dose-Response Testing in GBM Cells: Briefly, on day 1, cells were seeded in triplicate. For CSCs, 1500 cells/well were plated in a low attachment 96-well plate with NBE media and incubated for 3 days at 37° C. and 5% CO2 to allow the formation of neurospheres. For non-CSCs, 3000 cells/well were plated in a 96-well plate with DMEM media supplemented with 10% FBS. Similarly, the assay plates were also incubated for the same duration. Compound treatments started on day 4. Each compound was resuspended in DMSO and then diluted to different concentrations in media to a final concentration of DMSO less than 1%. The compounds were added at concentrations of 10, 3.3, 1.11, 0.37, 0.12, 0.041, 0.013, and 0.004 µM, respectively. DMSO-treated cells served as a control. After 72 h incubation with the compounds, fluorescent stains, propidium iodide, and Hoechst 33342 (Life Technologies, Carlsbad, CA), were used to stain the GBM cells to determine cell viability. A staining solution in 1×PBS was prepared by mixing PI and Hoechst 33342 to working concentrations of 2.5 μM and 20 μM, respectively. 20 μL of this staining solution was added per well, and plates were incubated at 37° C. and 5% CO2 for 60 min. After incubation, plates were read by Celigo imaging cytometer using an inbuilt Celigo application; Cell Viability (Dead+Total). For the viability measurement, the total number of neurospheres/cells and dead neurospheres/cells in each well were counted by the cytometer. The percentage of PI+ cells was normalized to DMSO and plotted against the drug concentration to calculate the EC50 with a four-parameter, variable-slope dose-response curve with an upper constraint of <100% dead cells and a lower constraint of =0% dead cells (GraphPad Prism v.10.0.0). For all dose response experiments, the experimental maximal efficacy (maximum observed % cell death) is reported. Relative EC50 values are reported for all compounds killing >50% of cells.

The test system of data set [1] is cap-dependent translation (FF cistron of FF-HCV-Ren). Briefly: In vitro translation assay, bicistronic FF-HCV-Ren mRNA reporter in Krebs-2 extracts. The format is biochemical. From the text:
Given these observations, the inventors next sought to interrogate the effects of compound (−)-20 in secondary assays for both eIF4A and DDX3 engagement. […] While inherent differences between the FP assay conditions (e.g. probe affinity, protein mobility in FP buffer) preclude direct comparison of absolute AmP values across the two different proteins, the inventors noted that relative anti-CSC potencies for these compounds ((−)-7>(−)-5≈(−)-20) were similar to their relative degrees of clamping for DDX3X and eIF4A1. To follow up on these findings, the inventors performed in vitro translation experiments using a bicistronic mRNA reporter construct FF-HCV-Ren, where translation of the firefly luciferase (FF) cistron is cap-dependent, while translation of the Renilla luciferase (HCV-Ren) cistron is driven off an HCV-IRES, rendering translation of this cistron cap-independent.
In vitro translation assays: In vitro translations were performed using 4 ng/μL of bicistronic FF-HCV-Ren/pA51 reporter mRNA and the indicated compound concentrations in Krebs-2 extracts at 30° C. for 1 h as described previously.^S10 Cap-dependent FLuc and cap-independent RLuc activities were assessed on a Berthold Lumat LB 9507 luminometer (Berthold Technologies). Curves were determined using a non-linear regression model on GraphPad Prism 8.4.0.

Another data set deals with GBM0308 CSCs. Briefly: Dose-response killing of GBM CSCs (PI/Hoechst, Celigo cytometer). Particulars: for CSCs Max. observed efficacy (% dead cells): up to 10 μM. The format is cell-based.
Excerpt: as §1, §2, §3

Setting [2] is: FF cistron, Krebs-2 extracts, 30° C., 1 h, read-out: cap-dependent translation inhibition EC50.

The structures appear in SMILES notation. Several values for one entry are separate records, joined by “and”; a condition that tells them apart may be missing. Equal values may be shown once. Read-outs that look alike come from different tables or passages of the source.

What is called EC50 is the midpoint of the concentration-response curve. For `CONC(=O)[C@H]1[C@@H](O)[C@@]2(O)c3c(OC)cc(OC)cc3O[C@@]2(c2ccc(OC)cc2)[C@@H]1c1ccccc1` [(−)-5, CR-1-31b, reference compound], in the data set with GBM0308 non-CSCs (72 h), the “Non-CSCs Max. observed efficacy (% dead cells)” value was determined as 22%. For the same compound, the 50% effective concentration (EC50) in data set [1] (setting [2]) was 215 nM and ~200 nM; in the data set on GBM0308 CSCs (GBM0308 CSCs, read-out: CSC EC50), 36 nM. Further, the “CSCs Max. observed efficacy (% dead cells)” value in the data set with GBM0308 CSCs (Table 1, GBM0308 CSCs, 72 h) came out at 91%.
On to `CONC(=O)[C@H]1[C@@H](O)[C@@]2(O)c3c(OC)cc(OC)cc3O[C@@]2(c2ccc(Br)cc2)[C@@H]1c1ccccc1` [(−)-7, SDS-1-021], for which the “Non-CSCs Max. observed efficacy (% dead cells)” value in the data set with GBM0308 non-CSCs (72 h) amounted to 31%. Moreover, the “CSCs Max. observed efficacy (% dead cells)” value in the data set on GBM0308 CSCs (Table 1, GBM0308 CSCs, 72 h) came out at 92%. In addition, the EC50 in the data set with GBM0308 CSCs (Table 1, GBM0308 CSCs, 72 h treatment, relative EC50, given for compounds causing at least 50% cell death, read-out: CSCs EC50) is 7 nM.
`COc1cc(OC)c2c(c1)O[C@@]1(c3ccc(Br)cc3)[C@H](c3ccccc3)[C@@H](C(=O)NS(=O)(=O)N(C)C)[C@@H](O)[C@@]21O` [(−)-20, (1R,2R,3S,3aR,8bS)-3a-(4-bromophenyl)-N—(N,N-dimethylsulfamoyl)-1,8b-dihydroxy-6,8-dimethoxy-3-phenyl-2,3,3a,8b-tetrahydro-1H-cyclopenta[b]benzofuran-2-carboxamide]: in the data set on GBM0308 non-CSCs, the “cytotoxic activity against non-CSCs, in words” value is listed as “limited detectable effects”. Besides, the Emax worked out at 26% in the data set with GBM0308 non-CSCs (Homo sapiens, Table 2, 72 h, highest tested concentration 10 μM, read-out: Non-CSCs Max. observed efficacy (% dead cells)) and 93% with GBM0308 CSCs (Homo sapiens, 72 h, read-out: CSCs Max. observed efficacy (% dead cells), Table 2, GBM0308 CSCs, 72 h, highest tested concentration 10 μM). Moreover, the EC50 is 937 nM in data set [1] (setting [2]); about 1000 nM in data set [1] (approximate value, read-out: translation inhibition EC50); 45 nM in the data set on GBM0308 CSCs (Homo sapiens, 72 h, Table 2, GBM0308 CSCs, 72 h treatment, relative EC50, read-out: CSCs EC50). The “fold by which potency of CSC death is higher than effects on cap-dependent translation” value in the data set on GBM0308 CSCs (CSC EC50 vs translation EC50) is given as about 20 fold.

Source of the values: patent publication US12612395B2, “Rocaglate derivatives and uses thereof” (TRUSTEES OF BOSTON UNIVERSITY, priority 2023, dated 2026).
